Assay: xn = mol fraction of the nth substance listed
Conditions: 100 kPa, Liquid; for viscosity: Concentric cylinders viscometry; for mass density: Vibrating tube method

CC(=O)[O-].CCCCn1cc[n+](C)c1 [1-butyl-3-methylimidazolium acetate] + CCCC[n+]1ccn(C)c1.O=S(=O)([N-]S(=O)(=O)C(F)(F)F)C(F)(F)F
Conditions	mass density, x2 = 0 [kg/m3]	mass density, x2 = 0.25 [kg/m3]	mass density, x2 = 0.498 [kg/m3]	mass density, x2 = 0.749 [kg/m3]	viscosity, x2 = 0 [mPa·s]	viscosity, x2 = 0.25 [mPa·s]	viscosity, x2 = 0.498 [mPa·s]	viscosity, x2 = 0.749 [mPa·s]
283.15 K	1062.7	1193.2	1296.5	1381.4	1013.4	577.38	310.72	175.1
288.15 K	1059.4	1189.4	1292.2	1376.8	645.6	385.58	220.24	129.87
293.15 K	1056	1185.6	1288	1372.3	421.35	265.43	159.18	101.85
298.15 K	1052.8	1181.9	1283.8	1367.8	292.57	189.58	119.72	76.32
303.15 K	1049.7	1178.3	1279.7	1363.3	206.68	138.72	91.38	60.27
308.15 K	1046.6	1174.7	1275.7	1358.8	150.08	104	71.14	48.44
313.15 K	1043.5	1171.1	1271.6	1354.3	110.79	79.57	56.47	40.34
318.15 K	1040.5	1167.5	1267.5	1349.9	85.03	62.28	45.44	32.7
323.15 K	1037.5	1163.9	1263.5	1345.4	66.07	49.57	37.16	27.36
328.15 K	1034.5	1160.3	1259.4	1341	52.29	40.09	30.8	23.18
333.15 K	1031.5	1156.8	1255.4	1336.6	42.29	33.14	26.09	20.11
338.15 K	1028.5	1153.2	1251.4	1332.3	34.38	27.38	21.93	17.14
343.15 K	1025.6	1149.7	1247.5	1327.9	28.48	23.05	18.79	14.96
348.15 K	1022.6	1146.1	1243.5	1323.6	23.88	19.63	16.25	13.13
353.15 K	1019.7	1142.6	1239.6	1319.4	20.63	17.21	14.49	11.89
358.15 K	1016.7	1139.1	1235.7	1315.1	17.35	14.64	12.45	10.35
363.15 K	1013.9	1135.6	1231.8	1310.9	15	12.81	11.02	9.272

CCCCn1cc[n+](C)c1.N#C[S-] [1-butyl-3-methylimidazolium thiocyanate] + CCCC[n+]1ccn(C)c1.O=S(=O)([N-]S(=O)(=O)C(F)(F)F)C(F)(F)F
Conditions	mass density, x2 = 0 [kg/m3]	mass density, x2 = 0.25 [kg/m3]	mass density, x2 = 0.5 [kg/m3]	mass density, x2 = 0.748 [kg/m3]	viscosity, x2 = 0 [mPa·s]	viscosity, x2 = 0.25 [mPa·s]	viscosity, x2 = 0.5 [mPa·s]	viscosity, x2 = 0.748 [mPa·s]
283.15 K	1079.2	1206.2	1305.3	1385.3	139.54	133.49	124.13	115.12
288.15 K	1076.2	1202.6	1301.2	1380.7	104.51	101.08	94.68	88.29
293.15 K	1073.2	1199	1297.1	1376.2	82.91	80.92	76.17	71.22
298.15 K	1070.2	1195.4	1293.1	1371.7	62.63	61.69	58.5	55.06
303.15 K	1067.2	1191.8	1289	1367.3	49.94	49.55	47.23	44.62
308.15 K	1064.2	1188.3	1285	1362.8	40.48	40.42	38.7	36.7
313.15 K	1061.3	1184.7	1281	1358.4	34.08	34.22	32.85	31.22
318.15 K	1058.4	1181.2	1277.1	1354	27.8	28.05	27.03	25.81
323.15 K	1055.5	1177.7	1273.1	1349.7	23.49	23.79	22.97	22.01
328.15 K	1052.6	1174.3	1269.2	1345.3	20.06	20.39	19.74	18.96
333.15 K	1049.8	1170.8	1265.3	1341	17.58	17.91	17.36	16.7
338.15 K	1047	1167.4	1261.5	1336.7	15.08	15.38	14.94	14.44
343.15 K	1044.1	1164	1257.6	1332.4	13.24	13.54	13.16	12.74
348.15 K	1041.4	1160.6	1253.8	1328.1	11.71	12	11.67	11.33
353.15 K	1038.6	1157.3	1250	1323.9	10.67	10.92	10.65	10.36
358.15 K	1035.8	1154	1246.2	1319.7	9.355	9.577	9.351	9.114
363.15 K	1033.1	1150.7	1242.4	1315.5	8.436	8.621	8.44	8.242

CCCC[n+]1ccn(C)c1.O=S(=O)([N-]S(=O)(=O)C(F)(F)F)C(F)(F)F + CCCCn1cc[n+](C)c1.F[B-](F)(F)F
Conditions	mass density, x1 = 0.25 [kg/m3]	mass density, x1 = 0.498 [kg/m3]	mass density, x1 = 0.751 [kg/m3]	mass density, x1 = 1 [kg/m3]	viscosity, x1 = 0.25 [mPa·s]	viscosity, x1 = 0.498 [mPa·s]	viscosity, x1 = 0.751 [mPa·s]	viscosity, x1 = 1 [mPa·s]
283.15 K	1291.2	1355.8	1409.1	1451.8	200.83	158.06	127.96	106.77
288.15 K	1287.1	1351.4	1404.4	1446.9	149.79	119.67	97.87	82.16
293.15 K	1283.1	1347.1	1399.8	1442.1	114.12	92.47	76.33	64.53
298.15 K	1279.1	1342.8	1395.1	1437.2	88.56	72.77	60.64	51.6
303.15 K	1275.1	1338.5	1390.5	1432.4	69.91	58.24	48.97	41.93
308.15 K	1271.2	1334.2	1386	1427.6	56.12	47.31	40.14	34.59
313.15 K	1267.3	1329.9	1381.5	1422.8	45.7	38.96	33.35	28.91
318.15 K	1263.4	1325.7	1376.9	1418.1	37.72	32.48	28.05	24.46
323.15 K	1259.5	1321.4	1372.4	1413.4	31.52	27.36	23.85	20.91
328.15 K	1255.6	1317.2	1368	1408.7	26.63	23.29	20.48	18.05
333.15 K	1251.8	1313.1	1363.5	1404	22.71	20.02	17.75	15.72
338.15 K	1248	1308.9	1359.1	1399.3	19.58	17.36	15.51	13.8
343.15 K	1244.2	1304.8	1354.8	1394.7	17.02	15.19	13.66	12.2
348.15 K	1240.4	1300.7	1350.4	1390.1	14.91	13.38	12.11	10.86
353.15 K	1236.7	1296.6	1346	1385.5	13.15	11.84	10.81	9.72
358.15 K	1233	1292.6	1341.7	1381	11.66	10.55	9.688	8.754
363.15 K	1229.3	1288.6	1337.5	1376.4	10.42	9.467	8.733	7.926

From the NIST ThermoML archive (doi:10.1021/acs.jced.6b00178)
